Laboratory results reported in the supplement of paper PMC10307832.

How the values were obtained:
Test in all cases: relative viability (nuclei count vs DMSO), 5 days (fraction); higher = more cells survive
BX 795 + Bortezomib = compound: O=C(NCCCNc1nc(Nc2cccc(NC(=O)N3CCCC3)c2)ncc1I)c1cccs1 [BX 795] + CC(C)C[C@H](NC(=O)[C@H](Cc1ccccc1)NC(=O)c1cnccn1)B(O)O [Bortezomib] (partner 0.002 µM)
Outline: (§1)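 Relative viability is defined as nuclei in treated wells over nuclei in vehicle wells. Duplicate plates were run and medians reported. Lung cancer cell lines in 1536-well plates were dosed by pin tool one day after seeding, with one drug or with a fixed anchor-drug dose plus five library-drug doses (not always all listed) in √10 steps, and nuclei were counted after 5 days.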

BX 795 + Navitoclax = compound: O=C(NCCCNc1nc(Nc2cccc(NC(=O)N3CCCC3)c2)ncc1I)c1cccs1 [BX 795] + CC1(C)CCC(c2ccc(Cl)cc2)=C(CN2CCN(c3ccc(C(=O)NS(=O)(=O)c4ccc(N[C@H](CCN5CCOCC5)CSc5ccccc5)c(S(=O)(=O)C(F)(F)F)c4)cc3)CC2)C1 [Navitoclax] (partner 0.5 µM)
Outline: as §1

BX 795 + Tozasertib = compound: O=C(NCCCNc1nc(Nc2cccc(NC(=O)N3CCCC3)c2)ncc1I)c1cccs1 [BX 795] + Cc1cc(Nc2cc(N3CCN(C)CC3)nc(Sc3ccc(NC(=O)C4CC4)cc3)n2)n[nH]1 [Tozasertib] (partner 0.1 µM)
Outline: as §1

BX 795 + Alpelisib = compound: O=C(NCCCNc1nc(Nc2cccc(NC(=O)N3CCCC3)c2)ncc1I)c1cccs1 [BX 795] + Cc1nc(NC(=O)N2CCC[C@H]2C(N)=O)sc1-c1ccnc(C(C)(C)C(F)(F)F)c1 [Alpelisib] (partner 2 µM)
Outline: as §1

BX 795 + Decitabine = compound: O=C(NCCCNc1nc(Nc2cccc(NC(=O)N3CCCC3)c2)ncc1I)c1cccs1 [BX 795] + Nc1ncn([C@H]2C[C@H](O)[C@@H](CO)O2)c(=O)n1 [Decitabine] (partner 2 µM)
Outline: as §1

Row | Cell Line | relative viability (BX 795 + Bortezomib; first compound 0.04 µM) | relative viability (BX 795 + Bortezomib; first compound 0.1265 µM) | relative viability (BX 795 + Bortezomib; first compound 0.4 µM) | relative viability (BX 795 + Bortezomib; first compound 1.265 µM) | relative viability (BX 795 + Navitoclax; first compound 0.04 µM) | relative viability (BX 795 + Navitoclax; first compound 0.1265 µM) | relative viability (BX 795 + Navitoclax; first compound 0.4 µM) | relative viability (BX 795 + Navitoclax; first compound 1.265 µM) | relative viability (BX 795 + Tozasertib; first compound 0.04 µM) | relative viability (BX 795 + Tozasertib; first compound 0.1265 µM) | relative viability (BX 795 + Tozasertib; first compound 0.4 µM) | relative viability (BX 795 + Tozasertib; first compound 1.265 µM) | relative viability (BX 795 + Alpelisib; first compound 0.04 µM) | relative viability (BX 795 + Alpelisib; first compound 0.1265 µM) | relative viability (BX 795 + Alpelisib; first compound 0.4 µM) | relative viability (BX 795 + Alpelisib; first compound 1.265 µM) | relative viability (BX 795 + Decitabine; first compound 0.04 µM) | relative viability (BX 795 + Decitabine; first compound 0.1265 µM) | relative viability (BX 795 + Decitabine; first compound 0.4 µM) | relative viability (BX 795 + Decitabine; first compound 1.265 µM)
1 | NCI-H1651 | 0.925 | 0.961 | 1.04 | 0.971 | 1 | 1.13 | 1.04 | 0.932 | 0.711 | 0.709 | 0.59 | 0.641 | 0.933 | 1.02 | 0.881 | 0.782 | 0.801 | 0.624 | 0.6 | 0.645
2 | NCI-H1666 | 0.653 | 0.806 | 0.913 | 0.688 | 1.12 | 1.31 | 1.14 | 0.717 | 0.642 | 0.69 | 0.599 | 0.403 | 1.07 | 1.11 | 1.01 | 0.799 | 0.925 | 0.69 | 0.785 | 0.686
3 | NCI-H1734 | 0.965 | 1.03 | 0.914 | 0.545 | 0.882 | 0.945 | 0.828 | 0.618 | 0.243 | 0.23 | 0.238 | 0.216 | 0.699 | 0.658 | 0.708 | 0.424 | 0.582 | 0.613 | 0.545 | 0.504
4 | NCI-H1755 | 1.01 | 0.963 | 1.05 | 0.758 | 1.07 | 0.978 | 1.04 | 0.671 | 0.681 | 0.481 | 0.553 | 0.508 | 0.929 | 0.9 | 0.93 | 0.63 | 0.796 | 0.645 | 0.885 | 0.704
5 | NCI-H1915 | 1.07 | 1.01 | 0.974 | 0.953 | 0.824 | 0.782 | 0.766 | 0.691 | 0.473 | 0.413 | 0.405 | 0.241 | 1.11 | 1.08 | 1.14 | 0.928 | 0.292 | 0.225 | 0.309 | 0.245
6 | NCI-H1975 | 0.332 | 0.414 | 0.392 | 0.249 | 1.19 | 1.24 | 1.16 | 0.985 | 0.707 | 0.794 | 0.623 | 0.234 | 0.6 | 0.671 | 0.626 | 0.406 | 0.434 | 0.472 | 0.35 | 0.359
7 | NCI-H1993 | 1.15 | 1.26 | 1.05 | 1.02 | 0.868 | 0.857 | 0.846 | 0.614 | 0.582 | 0.553 | 0.527 | 0.55 | 0.583 | 0.655 | 0.641 | 0.689 | 0.65 | 0.602 | 0.719 | 0.652
8 | NCI-H2009 | 0.97 | 0.924 | 0.996 | 0.804 | 1.23 | 1.1 | 1.19 | 0.853 | 0.705 | 0.714 | 0.678 | 0.381 | 1.14 | 1.06 | 1.34 | 0.836 | 0.391 | 0.39 | 0.4 | 0.374
9 | NCI-H2023 | 0.932 | 0.965 | 0.433 | 0.675 | 0.933 | 1.08 | 0.36 | 0.645 | 0.316 | 0.295 | 0.215 | 0.139 | 0.543 | 0.575 | 0.45 | 0.352 | 0.241 | 0.238 | 0.21 | 0.199
10 | NCI-H2085 | 1.04 | 0.98 | 1.02 | 0.999 | 1.12 | 1.17 | 1.27 | 1.01 | 0.797 | 0.84 | 0.771 | 0.66 | 1.09 | 0.98 | 1.14 | 0.863 | 0.683 | 0.501 | 0.737 | 0.575
11 | NCI-H2087 | 0.952 | 0.898 | 1.18 | 0.719 | 0.901 | 1 | 1.25 | 0.801 | 0.266 | 0.293 | 0.307 | 0.183 | 1.08 | 1.18 | 1.29 | 0.752 | 0.387 | 0.347 | 0.369 | 0.143
12 | NCI-H2126 | 1.08 | 1.07 | 1.21 | 1.07 | 0.795 | 0.826 | 0.965 | 0.787 | 0.85 | 0.883 | 0.831 | 0.758 | 0.768 | 0.763 | 0.876 | 0.728 | 0.626 | 0.553 | 0.747 | 0.593
13 | NCI-H2347 | 1.19 | 1.05 | 1.23 | 0.934 | 1.02 | 0.743 | 1.05 | 0.76 | 0.817 | 0.64 | 0.603 | 0.441 | 1.19 | 1 | 1.11 | 0.892 | 0.65 | 0.653 | 0.69 | 0.636
14 | NCI-H2405 | 0.965 | 1.03 | 0.91 | 0.941 | 0.827 | 0.848 | 0.588 | 0.7 | 0.799 | 0.715 | 0.746 | 0.581 | 0.785 | 0.735 | 0.372 | 0.626 | 0.869 | 0.742 | 0.693 | 0.722
15 | NCI-H3122 | 1.02 | 1.04 | 1.04 | 0.986 | 1.03 | 1 | 1.04 | 1.05 | 0.387 | 0.415 | 0.323 | 0.356 | 0.989 | 0.832 | 0.78 | 0.866 | 0.415 | 0.428 | 0.477 | 0.532
